What was measured:
Format in all cases: cell-based
Coliforma strain 14 = test: MIC, serial dilution test (Example 8); conditions: VI + VII equal parts
Procedure: (§1) The in vitro activity of 6-(D-α-aminophenylacetamido) penicillanic acid (I), 6-[(hexahydro-1H-azepin-1-yl)methyleneamino]penicillanic acid (II) and of a combination (III) of equal parts of the two compounds against clinically isolated enterobacteria was determined in a serial dilution test. Tryptose phosphate broth, containing the appropriate concentrations of the compounds or of the combination of them, was inoculated with 0.5×10^4 -5×10^4 organisms of the various micro-organisms tested and incubated overnight at 37° C. Minimum inhibitory concentrations (M.I.C.) were taken as the concentrations of the compounds or of the combination at which no visible growth occurred.
(§2) Using the technique described in Example 1 the in vitro activity of cephalotin (VI) and 6-[(N,N-diethylformamidino)-N'-amino]penicillanic acid (VII) and of a combination of equal parts of the compounds against clinically isolated strains of Coliforma and Klebsiella-Enterobacter was determined in serial dilution tests.

Coliforma strain 3 = test: MIC, serial dilution test (Example 8); conditions: VI + VII equal parts
Procedure: as §1, §2

[1] = tested on: Klebsiella-Enterobacter strain 5; test: MIC, serial dilution test (Example 8); conditions: VI + VII equal parts
Procedure: (§3) Tryptose phosphate broth, containing the appropriate concentrations of the compounds or of the combination of them, was inoculated with 0.5×10^4 -5×10^4 organisms of the various micro-organisms tested and incubated overnight at 37° C. Minimum inhibitory concentrations (M.I.C.) were taken as the concentrations of the compounds or of the combination at which no visible growth occurred.

Coliforma strain 4 = test: MIC, serial dilution test (Example 9); conditions: 1:2 and 2:1 given as I + VII concentrations
Procedure: as §1
(§4) Using the technique described in Example 1 the in vitro effect of combinations of 6-(D-α-aminophenylacetamido)-penicillanic acid (I) and 6-[(N,N-diethylformamidino)-N'-amino]penicillanic acid (VII) in the ratios 1:1, 1:2 and 2:1 against clinically isolated strains of Coliforma, Klebsiella-Enterobacter and Proteus was determined in serial dilution tests.

[2] = tested on: Klebsiella-Enterobacter strain 7; test: MIC, serial dilution test (Example 9); conditions: 1:2 and 2:1 given as I + VII concentrations
Procedure: as §1, §4

Proteus strain 9 = test: MIC, serial dilution test (Example 9); conditions: 1:2 and 2:1 given as I + VII concentrations
Procedure: as §1, §4

[3] = tested on: Klebsiella-Enterobacter strain 1; test: MIC, serial dilution test (Example 9); conditions: 1:2 and 2:1 given as I + VII concentrations
Procedure: as §3

[4] = tested on: Klebsiella-Enterobacter strain 5; test: MIC, serial dilution test (Example 9); conditions: 1:2 and 2:1 given as I + VII concentrations
Procedure: as §3

Coliform 3/70 = test: M.I.C., serial dilution test in tryptose phosphate broth (Example 1); conditions: Coliform strain 3/70; overnight at 37° C; III = equal parts I and II
Procedure: as §1

Coliform 9/70 = test: as above; conditions: Coliform strain 9/70; overnight at 37° C; III = equal parts I and II
Procedure: as §1

[5] = tested on: clinically isolated coliform; test: Emergence of resistance, subculturing by serial twofold broth dilution (Example 7); conditions: I + II 1:1
Procedure: The strain used was a clinically isolated coliform. As inocula were used bacteria from the tube with the highest concentration of compound still permitting visible growth to the naked eye after incubation at 37° C. overnight.

[6] = tested on: clinically isolated strain of Proteus (Proteus Mirabilis I 190); test: M.I.C., serial dilution test (Example 11); conditions: cephalosporin alone, II alone, 1:1 combination
Procedure: as §1
Using the same technique as described in Example 1 the in vitro activity of 6-[(hexahydro-1H-azepin-1-yl)methyleneamino]penicillanic acid (II), of various cephalosporins and of 1:1 combinations of II with these cephalosporins was determined against a clinically isolated strain of Proteus (Proteus Mirabilis I 190).

[7] = tested on: clinically isolated coliform bacterium (No. 9/70); test: M.I.C., serial dilution test (Example 2); conditions: coliform No. 9/70; penicillin alone, II alone, 1:1 combination
Procedure: as §1
Using the same technique as described in Example 1 the in vitro-activity of 6-[(hexahydro-1H-azepin-1-yl)methyleneamino]penicillanic acid (II), of various penicillins and of 1:1-combinations of II with the respective penicillin was determined against a clinically isolated coliform bacterium (No. 9/70).

Coliform 10/70 = test: M.I.C., serial dilution test in tryptose phosphate broth (Example 1); conditions: Coliform strain 10/70; overnight at 37° C; III = equal parts I and II
Procedure: as §1

Proteus 12/70 = test: as above; conditions: Proteus strain 12/70; overnight at 37° C; III = equal parts I and II
Procedure: as §1

Proteus 13/70 = test: as above; conditions: Proteus strain 13/70; overnight at 37° C; III = equal parts I and II
Procedure: as §1

Proteus 20/70 = test: as above; conditions: Proteus strain 20/70; overnight at 37° C; III = equal parts I and II
Procedure: as §1

Proteus vulgaris B = test: as above; conditions: overnight at 37° C, III = equal parts I and II
Procedure: as §1

Coliform 14/70 = test: M.I.C., serial dilution test (Example 4); conditions: Coliform strain 14/70; V = equal parts I and IV
Procedure: as §1

Coliform 16/70 = test: M.I.C., serial dilution test (Example 4); conditions: Coliform strain 16/70; V = equal parts I and IV
Procedure: as §1

Coliform 7/70 = test: M.I.C., serial dilution test (Example 4); conditions: Coliform strain 7/70; V = equal parts I and IV
Procedure: as §1

[8] = tested on: Klebsiella-Enterobacter. 1/70; test: M.I.C., serial dilution test (Example 4); conditions: Klebsiella-Enterobacter. strain 1/70; V = equal parts I and IV
Procedure: as §1

[9] = tested on: Klebsiella-Enterobacter. 10/70; test: M.I.C., serial dilution test (Example 4); conditions: Klebsiella-Enterobacter. strain 10/70; V = equal parts I and IV
Procedure: as §1

[10] = tested on: Klebsiella-Enterobacter. 431; test: M.I.C., serial dilution test (Example 4); conditions: Klebsiella-Enterobacter. strain 431; V = equal parts I and IV
Procedure: as §1

[11] = tested on: Klebsiella-Enterobacter. 5/70; test: M.I.C., serial dilution test (Example 4); conditions: Klebsiella-Enterobacter. strain 5/70; V = equal parts I and IV
Procedure: as §1

[12] = tested on: Klebsiella-Enterobacter. 7/70; test: M.I.C., serial dilution test (Example 4); conditions: Klebsiella-Enterobacter. strain 7/70; V = equal parts I and IV
Procedure: as §1

[13] = tested on: Klebsiella-Enterobacter. 9/70; test: M.I.C., serial dilution test (Example 4); conditions: Klebsiella-Enterobacter. strain 9/70; V = equal parts I and IV
Procedure: as §1

Proteus 10/70 = test: M.I.C., serial dilution test (Example 4); conditions: Proteus strain 10/70; V = equal parts I and IV
Procedure: as §1

Proteus 4/70 = test: M.I.C., serial dilution test (Example 4); conditions: Proteus strain 4/70; V = equal parts I and IV
Procedure: as §1

Proteus 7/70 = test: M.I.C., serial dilution test (Example 4); conditions: Proteus strain 7/70; V = equal parts I and IV
Procedure: as §1

Proteus 9/70 = test: M.I.C., serial dilution test (Example 4); conditions: Proteus strain 9/70; V = equal parts I and IV
Procedure: as §1

[14] = tested on: clinically isolated strain of Klebsiella-Enterobacter (strain 4/71); test: M.I.C., serial dilution test (Example 10); conditions: cephalosporin alone, II alone, 1:1 combination
Procedure: as §1
Using the same technique as described in Example 1 the in vitro activity of 6-[(hexahydro-1H-azepin-1-yl)methyleneamino]penicillanic acid (II), of various cephalosporins previously mentioned in this specification, and of 1:1 combinations of II with these cephalosporins was determined against a clinically isolated strain of Klebsiella-Enterobacter (strain 4/71)

Coliforma strain 7 = test: MIC, serial dilution test (Example 8); conditions: VI + VII equal parts
Procedure: as §1, §2

E.coli III = test: Emergence of resistance, subculturing by serial twofold broth dilution (Example 6); conditions: passage 2; I + IV 1:1
Procedure: Subculturing using a serial twofold broth dilution technique was performed with 6-(D-α-amino-phenylacetamido)-penicillanic acid (I), 6-[(piperidyl-1)methyleneamino]penicillanic acid (IV) and a 1:1 combination of I+IV. As inocula were used bacteria from the tube with the highest concentration of compound still permitting visible growth to the naked eye after incubation at 37° C. overnight. The following increases in MIC-values were noted.

## CCN(C=N[C@@H]1C(=O)N2[C@@H]1SC(C)(C)[C@@H]2C(=O)O)CC [VII, 6-[(N,N-diethylformamidino)-N'-amino]penicillanic acid]
Coliforma strain 14
  MIC: 12.5 µg/mL
Coliforma strain 3
  MIC: 6.25 µg/mL
[1]
  MIC: > 100 µg/mL
Coliforma strain 4
  MIC: 3.12 µg/mL
[2]
  MIC: > 100 µg/mL
Proteus strain 9
  MIC: 100 µg/mL
[3]
  MIC: > 100 µg/mL
[4]
  MIC: > 100 µg/mL

## CC1(C)S[C@@H]2[C@H](N=CN3CCCCCC3)C(=O)N2[C@H]1C(=O)O [II, 6-[(hexahydro-1H-azepin-1-yl)methyleneamino]penicillanic acid]
Coliform 3/70
  M.I.C.: 12.5 µg/mL
Coliform 9/70
  M.I.C.: 3.12 µg/mL
[5]; passage 0
  MIC: 0.39 µg/mL
[5]; passage 1
  MIC: 6.25 µg/mL
[5]; passage 2
  MIC: 25 µg/mL
[5]; passage 3
  MIC: 25 µg/mL
[5]; passage 4
  MIC: 25 µg/mL
[5]; passage 5
  MIC: 25 µg/mL
[5]; passage 7
  MIC: 25 µg/mL
[5]; passage 8
  MIC: 25 µg/mL
[6]
  M.I.C.: 100 µg/mL

## CC1(C)S[C@@H]2[C@H](NC(=O)Cc3ccccc3)C(=O)N2[C@H]1C(=O)O [benzylpenicillin]
[7]
  M.I.C.: 25 µg/mL

## CC1(C)S[C@@H]2[C@H](NC(=O)[C@H](N)c3ccccc3)C(=O)N2[C@H]1C(=O)O [I, 6-(D-α-aminophenylacetamido)penicillanic acid]
Coliform 10/70
  M.I.C.: 3.12 µg/mL
Coliform 3/70
  M.I.C.: 1.56 µg/mL
Proteus 12/70
  M.I.C.: 100 µg/mL
Proteus 13/70
  M.I.C.: 100 µg/mL
Proteus 20/70
  M.I.C.: > 100 µg/mL
Proteus vulgaris B
  M.I.C.: 50 µg/mL
Coliform 14/70
  M.I.C.: 6.25 µg/mL
Coliform 16/70
  M.I.C.: 3.12 µg/mL
Coliform 7/70
  M.I.C.: 3.12 µg/mL
[8]
  M.I.C.: 50 µg/mL
[9]
  M.I.C.: 50 µg/mL
[10]
  M.I.C.: 100 µg/mL
[11]
  M.I.C.: 100 µg/mL
[12]
  M.I.C.: > 100 µg/mL
[13]
  M.I.C.: 50 µg/mL
Proteus 10/70
  M.I.C.: 1.56 µg/mL
Proteus 4/70
  M.I.C.: 1.56 µg/mL
Proteus 7/70
  M.I.C.: 1.56 µg/mL
Proteus 9/70
  M.I.C.: 6.25 µg/mL
[5]; passage 1
  MIC: 3,12 μg/ml
Coliforma strain 4
  MIC: 3.12 µg/mL
[2]
  MIC: > 100 µg/mL
Proteus strain 9
  MIC: 3.12 µg/mL
[3]
  MIC: 50 µg/mL
[4]
  MIC: 100 µg/mL

## CC1(C)S[C@@H]2[C@H](NC(=O)[C@H](N=[N+]=[N-])c3ccccc3)C(=O)N2[C@H]1C(=O)O [6-(D-α-azidophenylacetamido)penicillanic acid]
[7]
  M.I.C.: 50 µg/mL

## CC1(C)S[C@@H]2[C@H](NC(=O)C(C(=O)O)c3ccccc3)C(=O)N2[C@H]1C(=O)O (stereo partly drawn) [α-carboxybenzylpenicillin]
[7]
  M.I.C.: 12.5 µg/mL

## [N-]=[N+]=NCC1=C(C(=O)O)N2C(=O)C(NC(=O)Cc3cccs3)C2SC1 (centres unmarked) [EPC 821/4II]
[14]
  M.I.C.: 100 µg/mL
[6]
  M.I.C.: 12.5 µg/mL

## CC(=O)OCC1=C(C(=O)O)N2C(=O)[C@@H](NC(=O)Cc3cccs3)[C@H]2SC1 [VI, cephalotin]
Coliforma strain 14
  MIC: 12.5 µg/mL
Coliforma strain 3
  MIC: 6.25 µg/mL
Coliforma strain 7
  MIC: 12.5 µg/mL
[1]
  MIC: 25 µg/mL
[14]
  M.I.C.: 50 µg/mL
[6]
  M.I.C.: 3.12 µg/mL

## CC1(C)S[C@@H]2[C@H](N=CN3CCCCC3)C(=O)N2[C@H]1C(=O)O [IV, 6-[(piperidyl-1)-methyleneamino]penicillanic acid]
Coliform 14/70
  M.I.C.: 3.12 µg/mL
Coliform 16/70
  M.I.C.: 1.56 µg/mL
Coliform 7/70
  M.I.C.: 1.56 µg/mL
E.coli III
  MIC: 6.25 µg/mL

From patent publication US4956179A, “Antibacterial combination of penicillin and cephalosporin” (priority 1971, dated 1990)
